Test results published in patent US20250120989A1, “BRIDGED TRICYCLIC CARBAMOYLPYRIDONE COMPOUNDS AND USES THEREOF” (priority 2023, published 2025).
pEC50: −log10 of the molar value. Converted amounts (≈) assume the structure as drawn.

How the values were obtained:
in vitro = settings: human, uninfected MT-4 cells
physchem = settings: FaSSIF, 23 °C, thermodynamic from solid
HIV-1 (IIIB) = assay: microbe, parasite or virus in culture; assay type: cell-based; settings: Human immunodeficiency virus 1, MT4, 120 h; HIV-1 (IIIB) replication in MT-4 cells, 5 days, Cell Titer Glo; read-out: MT4 EC50

Row | Structure (SMILES) | CC50 at 5 days (in vitro) [µM] | solubility thermodynamic at 24 h (physchem) [µg/mL] | pEC50 (HIV-1 (IIIB))
1 | COC1=NO[C@@]2(CC[C@H](C)N3C[C@H]2n2cc(C(=O)NCc4ccc(F)cc4F)c(=O)c(OCOC(=O)OCCN(CC(=O)O)C(=O)OCOP(=O)(O)O)c2C3=O)C1 [Compound 8, N-(2-((((((3′S,5S,7′R)-10′-((2,4-difluorobenzyl)carbamoyl)-3-methoxy-3′-methyl-1′,11′-dioxo-1′,4′,5′,11′-tetrahydro-3′H,4H,7′H-spiro[isoxazole-5,6′-[2,7]methanopyrido[1,2-a][1,4]diazonin]-12′-yl)oxy)methoxy)carbonyl)oxy)ethyl)-N-(((phosphonooxy)methoxy)carbonyl)glycine] | 17.8 | 3020 (≈ 3.63 mM) | 8.69
2 | COC1=NO[C@@]2(CC[C@H](C)N3C[C@H]2n2cc(C(=O)NCc4ccc(F)cc4F)c(=O)c(OCOC(=O)O[C@@H](C)[C@H](C)OP(=O)(O)O)c2C3=O)C1 [Compound 29, (((3′S,5S,7′R)-10′-((2,4-difluorobenzyl)carbamoyl)-3-methoxy-3′-methyl-1′,11′-dioxo-1′,4′,5′,11′-tetrahydro-3′H,4H,7′H-spiro[isoxazole-5,6′-[2,7]methanopyrido[1,2-a][1,4]diazonin]-12′-yl)oxy)methyl ((2S,3S)-3-(phosphonooxy)butan-2-yl) carbonate] | 29 | 4880 (≈ 6.7 mM) | 8.31
3 | CC1=NO[C@@]2(CC[C@H](C)N3C[C@H]2n2cc(C(=O)NCc4ccc(F)cc4F)c(=O)c(OCOC(=O)OC[C@H](C)COP(=O)(O)O)c2C3=O)C1 [Compound 69, (((3′S,5S,7′R)-10′-((2,4-difluorobenzyl)carbamoyl)-3,3′-dimethyl-1′,11′-dioxo-1′,4′,5′,11′-tetrahydro-3′H,4H,7′H-spiro[isoxazole-5,6′-[2,7]methanopyrido[1,2-a][1,4]diazonin]-12′-yl)oxy)methyl ((S)-2-methyl-3-(phosphonooxy)propyl) carbonate] | 17.3 | 4600 (≈ 6.46 mM) | 8.54
4 | CC1=NO[C@@]2(CC[C@H](C)N3C[C@H]2n2cc(C(=O)NCc4ccc(F)cc4F)c(=O)c(OC(=O)OC[C@H](C)OP(=O)(O)O)c2C3=O)C1 [Compound 39, (3′S,5S,7′R)-10′-((2,4-difluorobenzyl)carbamoyl)-3,3′-dimethyl-1′,11′-dioxo-1′,4′,5′,11′-tetrahydro-3′H,4H,7′H-spiro[isoxazole-5,6′-[2,7]methanopyrido[1,2-a][1,4]diazonin]-12′-yl ((S)-2-(phosphonooxy)propyl) carbonate] | 16.1 | 2660 (≈ 3.97 mM) | 8.80
5 | CC[C@@H](COP(=O)(O)O)OC(=O)OCOc1c2n(cc(C(=O)NCc3ccc(F)cc3F)c1=O)[C@@H]1CN(C2=O)[C@@H](C)CC[C@]12CC(C)=NO2 [Compound 26, (((3′S,5S,7′R)-10′-((2,4-difluorobenzyl)carbamoyl)-3,3′-dimethyl-1′,11′-dioxo-1′,4′,5′,11′-tetrahydro-3′H,4H,7′H-spiro[isoxazole-5,6′-[2,7]methanopyrido[1,2-a][1,4]diazonin]-12′-yl)oxy)methyl ((S)-1-(phosphonooxy)butan-2-yl) carbonate] | 13.5 | 4760 (≈ 6.69 mM) | 8.57
6 | CC1=NO[C@@]2(CC[C@H](C)N3C[C@H]2n2cc(C(=O)NCc4ccc(F)cc4F)c(=O)c(OCOC(=O)O[C@H](C)[C@H](C)OP(=O)(O)O)c2C3=O)C1 [Compound 58, (((3′S,5S,7′R)-10′-((2,4-difluorobenzyl)carbamoyl)-3,3′-dimethyl-1′,11′-dioxo-1′,4′,5′,11′-tetrahydro-3′H,4H,7′H-spiro[isoxazole-5,6′-[2,7]methanopyrido[1,2-a][1,4]diazonin]-12′-yl)oxy)methyl ((2R,3S)-3-(phosphonooxy)butan-2-yl) carbonate] | 24.2 | 4860 (≈ 6.82 mM) | 8.68
7 | CC[C@H](COC(=O)OCOc1c2n(cc(C(=O)NCc3ccc(F)cc3F)c1=O)[C@@H]1CN(C2=O)[C@@H](C)CC[C@]12CC(C)=NO2)OP(=O)(O)O [Compound 64, (((3′S,5S,7′R)-10′-((2,4-difluorobenzyl)carbamoyl)-3,3′-dimethyl-1′,11′-dioxo-1′,4′,5′,11′-tetrahydro-3′H,4H,7′H-spiro[isoxazole-5,6′-[2,7]methanopyrido[1,2-a][1,4]diazonin]-12′-yl)oxy)methyl ((R)-2-(phosphonooxy)butyl) carbonate] | 13.6 | 4840 (≈ 6.8 mM) | 8.91
8 | CC1=NO[C@@]2(CC[C@H](C)N3C[C@H]2n2cc(C(=O)NCc4ccc(F)cc4F)c(=O)c(OCOC(=O)OC[C@@H](C)OP(=O)(O)O)c2C3=O)C1 [Compound 22, (((3′S,5S,7′R)-10′-((2,4-difluorobenzyl)carbamoyl)-3,3′-dimethyl-1′,11′-dioxo-1′,4′,5′,11′-tetrahydro-3′H,4H,7′H-spiro[isoxazole-5,6′-[2,7]methanopyrido[1,2-a][1,4]diazonin]-12′-yl)oxy)methyl ((R)-2-(phosphonooxy)propyl) carbonate] | 9.78 | 4180 (≈ 5.99 mM) | 8.71
9 | CC1=NO[C@@]2(CC[C@H](C)N3C[C@H]2n2cc(C(=O)NCc4ccc(F)cc4F)c(=O)c(OCOC(=O)O[C@H](C)C[C@@H](C)OP(=O)(O)O)c2C3=O)C1 [Compound 31, (((3′S,5S,7′R)-10′-((2,4-difluorobenzyl)carbamoyl)-3,3′-dimethyl-1′,11′-dioxo-1′,4′,5′,11′-tetrahydro-3′H,4H,7′H-spiro[isoxazole-5,6′-[2,7]methanopyrido[1,2-a][1,4]diazonin]-12′-yl)oxy)methyl ((2R,4R)-4-(phosphonooxy)pentan-2-yl) carbonate] | 12.9 | 4620 (≈ 6.37 mM) | 8.46
10 | CC[C@@H](COC(=O)OCOc1c2n(cc(C(=O)NCc3ccc(F)cc3F)c1=O)[C@@H]1CN(C2=O)[C@@H](C)CC[C@]12CC(OC)=NO2)OP(=O)(O)O [Compound 67, (((3′S,5S,7′R)-10′-((2,4-difluorobenzyl)carbamoyl)-3-methoxy-3′-methyl-1′,11′-dioxo-1′,4′,5′,11′-tetrahydro-3′H,4H,7′H-spiro[isoxazole-5,6′-[2,7]methanopyrido[1,2-a][1,4]diazonin]-12′-yl)oxy)methyl ((S)-2-(phosphonooxy)butyl) carbonate] | 14.4 | 5180 (≈ 7.12 mM) | 8.62
11 | CC1=NO[C@@]2(CC[C@H](C)N3C[C@H]2n2cc(C(=O)NCc4ccc(F)cc4F)c(=O)c(OCOC(=O)OC(C)(C)COP(=O)(O)O)c2C3=O)C1 [Compound 62, (((3′S,5S,7′R)-10′-((2,4-difluorobenzyl)carbamoyl)-3,3′-dimethyl-1′,11′-dioxo-1′,4′,5′,11′-tetrahydro-3′H,4H,7′H-spiro[isoxazole-5,6′-[2,7]methanopyrido[1,2-a][1,4]diazonin]-12′-yl)oxy)methyl (2-methyl-1-(phosphonooxy)propan-2-yl) carbonate] | 28.1 | 5040 (≈ 7.08 mM) | 8.59
12 | CC1=NO[C@@]2(CC[C@H](C)N3C[C@H]2n2cc(C(=O)NCc4ccc(F)cc4F)c(=O)c(OCOC(=O)O[C@H](C)[C@@H](C)OP(=O)(O)O)c2C3=O)C1 [Compound 27, (((3′S,5S,7′R)-10′-((2,4-difluorobenzyl)carbamoyl)-3,3′-dimethyl-1′,11′-dioxo-1′,4′,5′,11′-tetrahydro-3′H,4H,7′H-spiro[isoxazole-5,6′-[2,7]methanopyrido[1,2-a][1,4]diazonin]-12′-yl)oxy)methyl ((2R,3R)-3-(phosphonooxy)butan-2-yl) carbonate] | 18.7 | 4660 (≈ 6.55 mM) | 8.61
13 | COC1=NO[C@@]2(CC[C@H](C)N3C[C@H]2n2cc(C(=O)NCc4ccc(F)cc4F)c(=O)c(OCOC(=O)O[C@H](C)[C@H](C)OP(=O)(O)O)c2C3=O)C1 [Compound 60, (((3′S,5S,7′R)-10′-((2,4-difluorobenzyl)carbamoyl)-3-methoxy-3′-methyl-1′,11′-dioxo-1′,4′,5′,11′-tetrahydro-3′H,4H,7′H-spiro[isoxazole-5,6′-[2,7]methanopyrido[1,2-a][1,4]diazonin]-12′-yl)oxy)methyl ((2R,3S)-3-(phosphonooxy)butan-2-yl) carbonate] | 23.8 | 4520 (≈ 6.2 mM) | 8.72
14 | COC1=NO[C@@]2(CC[C@H](C)N3C[C@H]2n2cc(C(=O)NCc4ccc(F)cc4F)c(=O)c(OCOC(=O)OC[C@H](C)OP(=O)(O)O)c2C3=O)C1 [Compound 23, (((3′S,5S,7′R)-10′-((2,4-difluorobenzyl)carbamoyl)-3-methoxy-3′-methyl-1′,11′-dioxo-1′,4′,5′,11′-tetrahydro-3′H,4H,7′H-spiro[isoxazole-5,6′-[2,7]methanopyrido[1,2-a][1,4]diazonin]-12′-yl)oxy)methyl ((S)-2-(phosphonooxy)propyl) carbonate] | 14.8 | 4400 (≈ 6.16 mM) | 8.63
15 | CC[C@H](COP(=O)(O)O)OC(=O)OCOc1c2n(cc(C(=O)NCc3ccc(F)cc3F)c1=O)[C@@H]1CN(C2=O)[C@@H](C)CC[C@]12CC(C)=NO2 [Compound 25, (((3′S,5S,7′R)-10′-((2,4-difluorobenzyl)carbamoyl)-3,3′-dimethyl-1′,11′-dioxo-1′,4′,5′,11′-tetrahydro-3′H,4H,7′H-spiro[isoxazole-5,6′-[2,7]methanopyrido[1,2-a][1,4]diazonin]-12′-yl)oxy)methyl ((R)-1-(phosphonooxy)butan-2-yl) carbonate] | 13.9 | 5130 (≈ 7.2 mM) | 8.66
